Assay results taken from patent publication US20060253263A1, “Method to optimize drug selection, dosing and evaluation and to help predict therapeutic response and toxicity from immunosuppressant therapy” (priority 2005, published 2006).
Where two headings read alike, the source gives them in different places.

How the values were obtained:
[1] = system: patients with class IV LN; conditions: cited from earlier work
[2] = system: patients with class IV LN; conditions: cited from earlier work; for renal remission achieved: then AZA maintenance
[3] = system: patients with proliferative LN; conditions: 59 patients, cited from earlier work; for patients who died during maintenance therapy: followed for as long as 30 months
patients with severe LN = conditions: cited from earlier work; for combined end point, complete plus partial remission (number of patients): P=0.009; for complete remission (number of patients) / complete remission (percent of patients) / partial remission (number of patients): induction therapy of LN; for complete remission (number of patients) / complete remission (percent of patients): 140 patients randomized
[4] = system: rheumatoid arthritis patients; conditions: cited from earlier work
[5] = system: rheumatoid arthritis patients; conditions: five trials, 300 patients, cited from earlier work
[6] = human, in vivo
[7] = cited from earlier work
[8] = target: T1, dihydropyrimidine dehydrogenase (DPD) (Homo sapiens, UniProt Q12882); conditions: cited from earlier work
T1 construct: host or cells: endogenous enzyme of the body (in vivo drug catabolism)
T1 sequence (Q12882 4-1025): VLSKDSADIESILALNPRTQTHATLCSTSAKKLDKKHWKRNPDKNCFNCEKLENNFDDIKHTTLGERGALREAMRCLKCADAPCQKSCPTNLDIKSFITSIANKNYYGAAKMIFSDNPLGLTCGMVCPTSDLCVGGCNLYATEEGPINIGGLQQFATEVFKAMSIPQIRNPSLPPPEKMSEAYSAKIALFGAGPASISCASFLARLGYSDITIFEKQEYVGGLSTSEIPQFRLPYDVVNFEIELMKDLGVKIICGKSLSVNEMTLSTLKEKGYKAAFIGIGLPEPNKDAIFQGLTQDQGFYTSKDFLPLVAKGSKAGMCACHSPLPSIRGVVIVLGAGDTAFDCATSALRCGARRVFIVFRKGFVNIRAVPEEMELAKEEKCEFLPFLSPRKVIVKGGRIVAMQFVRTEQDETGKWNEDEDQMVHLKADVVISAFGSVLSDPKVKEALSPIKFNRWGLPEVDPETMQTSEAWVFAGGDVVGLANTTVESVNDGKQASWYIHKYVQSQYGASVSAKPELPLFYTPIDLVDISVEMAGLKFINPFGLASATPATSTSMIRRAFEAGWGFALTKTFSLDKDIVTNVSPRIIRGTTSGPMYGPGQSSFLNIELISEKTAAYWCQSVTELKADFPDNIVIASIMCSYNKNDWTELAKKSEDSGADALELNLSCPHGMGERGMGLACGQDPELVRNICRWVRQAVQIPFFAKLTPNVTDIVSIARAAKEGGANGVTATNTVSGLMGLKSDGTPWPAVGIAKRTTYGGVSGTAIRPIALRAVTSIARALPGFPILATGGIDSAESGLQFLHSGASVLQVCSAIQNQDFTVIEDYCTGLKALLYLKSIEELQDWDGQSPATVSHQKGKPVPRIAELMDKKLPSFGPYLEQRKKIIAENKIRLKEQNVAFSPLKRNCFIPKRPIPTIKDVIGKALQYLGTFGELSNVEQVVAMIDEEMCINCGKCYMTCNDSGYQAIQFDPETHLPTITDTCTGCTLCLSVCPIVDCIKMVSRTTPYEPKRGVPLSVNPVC

[9] = system: advanced colorectal cancers; conditions: 5-FU alone; cited from earlier work

O=P1(N(CCCl)CCCl)NCCCO1 (stereo not shown) [CYC, Cyclophosphamide]
renal survival ([1]; black patients, at year 5): 71% | renal survival rate ([1]; nonblack patients, through 5 years of follow-up): 95% | renal remission achieved ([2]; high-dose group (six monthly pulses followed by two quarterly pulses IV)): 54% | subsequent renal flares ([2]; high-dose group): 29% | renal remission achieved ([2]; low-dose group (500 mg biweekly x six pulses IV)): 71% | subsequent renal flares ([2]; low-dose group): 27% | patients who died during maintenance therapy [3]: four | patients who developed chronic renal failure during maintenance therapy [3]: three | combined end point, complete plus partial remission (number of patients) (patients with severe LN): 21 patients | deaths (patients with severe LN; all in patients randomized to IV CYC): Three | complete remission (number of patients) (patients with severe LN): four | complete remission (percent of patients) (patients with severe LN): 6% | partial remission (number of patients) (patients with severe LN): 17 patients

CN(Cc1cnc2nc(N)nc(N)c2n1)c1ccc(C(=O)N[C@@H](CCC(=O)O)C(=O)O)cc1 [MTX, methotrexate]
fraction of rheumatoid arthritis patients showing major improvement ([4]; human, in vivo): one-third | patients with mild adverse effects ([4]; rheumatoid arthritis patients): up to 60% | more likely than placebo to discontinue treatment due to adverse reactions [5]: three | people who withdrew due to adverse effects ([5]; placebo group seven percent): twenty-two

Cn1cnc([N+](=O)[O-])c1Sc1ncnc2nc[nH]c12 [AZA, azathioprine]
patients who developed chronic renal failure during maintenance therapy [3]: one | 6-TG level at maintained therapeutic response [6]: 187 pmol | therapeutic range of 6-TG [6]: 140 to 249 pmol

COc1c(C)c2c(c(O)c1C/C=C(\C)CCC(=O)OCCN1CCOCC1)C(=O)OC2 [MMF, Mycophenolate mofetil]
patients who died during maintenance therapy [3]: one | patients who developed chronic renal failure during maintenance therapy [3]: one | combined end point, complete plus partial remission (number of patients) (patients with severe LN): 37 patients | complete remission (number of patients) (patients with severe LN): 16 patients | complete remission (percent of patients) (patients with severe LN): 23% | partial remission (number of patients) (patients with severe LN): Twenty-one

O=c1[nH]cc(F)c(=O)[nH]1 [5-FU, 5-Fluorouracil]
dose excreted unchanged in the urine ([7]; normal individuals): 10% | dose excreted unchanged in the urine ([7]; people genetically deficient in DPD): 90% | fraction of a dose transformed by DPD to the inactive dihydrofluorouracil form ([8]; in vivo): more than 80% | fraction of an injected dose rapidly inactivated by DPD ([8]; injected dose): More than 85% | partial remissions [9]: 10-30%
